According to article PMC6370762, “Endogenous pore-forming protein complex targets acidic glycosphingolipids in lipid rafts to initiate endolysosome regulation” (Communications Biology, 2019):

What follows are substances tested against BmTFF3 (Bombina maxima, UniProt B2BRT2). Settings: PBS pH 7.4, 37 °C; 1:1 global fit; also bound on lipid overlay strips.
Chain of BmTFF3 (B2BRT2 21-166 limits assumed): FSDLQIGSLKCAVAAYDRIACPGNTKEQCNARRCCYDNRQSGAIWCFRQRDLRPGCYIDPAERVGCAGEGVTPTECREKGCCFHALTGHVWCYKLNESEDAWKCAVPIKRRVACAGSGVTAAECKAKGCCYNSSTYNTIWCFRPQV
sulfatides showed a Kd of ~62.3 nM.

What follows are substances tested against T1, βγ-CAT. Settings: PBS pH 7.4, 37 °C; 1:1 global fit; gangliosides bind the BmALP1 subunit.
T1 construct: gene BmALP1
GM1 gave a Kd of 30.5 nM. For GM2, the Kd was 53.7 nM. In the case of GD3, the Kd is reported as 46.7 nM. GT1b showed a Kd of 527 nM. GD1b showed a Kd of 521 nM. Work on GD1a yielded a Kd of 76.3 nM. In the case of GM3, the Kd is reported as 10.2 nM. For GM4, the Kd was 46.3 nM.

What follows are substances tested against T1, βγ-CAT. Settings: PBS pH 7.4, 37 °C; 1:1 global fit; site on BmTFF3 subunit.
sulfatides was tested, and the Kd was 65.5 nM.
